Measurements published in PMC10385664, “Projection of Target Drug Particle Size in Oral Formulations Using the Refined Developability Classification System (rDCS)” (Pharmaceutics, 2023).
Several values for one entry are separate records, joined by “and”; a condition that tells them apart may be missing. Equal values may be shown once.

Assay: Powder dissolution method for estimating IDR in FaSSIF V1
Assay type: physicochemical
Conditions: FaSSIF V1, 37 °C, 100 rpm
Protocol: Istradefylline disks could not be prepared because disk compression led to a change in solid state. The IDR of istradefylline was therefore measured (n = 4) according to a published powder dissolution method for estimating rotating disk IDRs. Istradefylline was weighed into an assay vial containing a magnetic crossbar stirrer, in an amount corresponding to approximately twice the amount needed to saturate the medium. The vials were placed in a heating block and 20 mL pre-heated FaSSIF V1 (37.0 ± 0.5 °C) was added to start the dissolution experiments. The medium was stirred at 100 rpm and concentrations were measured with in situ UV-spectroscopy using fiber optic dip probes until a plateau in the dissolution profile was reached. The vials were protected from light with aluminum foil during the entire experiment. […]
The concentration‐time curves for IDR determination were recorded with in situ UV‐spectroscopy using fiber optic dip probes. […] The buffer was stirred at 100 rpm and spectra were recorded approximately 1 minut e after addition of the stock solution. […]
Second derivatives of the UV spectra were used to establish the calibration curves. Multiple wavelength ranges were evaluated, and calibration curves were accepted for further investigation when linear […]

CCn1c(=O)c2c(nc(/C=C/c3ccc(OC)c(OC)c3)n2C)n(CC)c1=O [Istradefylline, istradefylline]
IDR FaSSIF V1 (powder dissolution method): 0.302 ± 0.010 µg/min/cm^2 and 0.302 ± 0.010 ^3 µg/min/cm^2
